The source of these data is ChEMBL document CHEMBL1944628, “Bioanalytical Screening of Riboflavin Antagonists for Targeted Drug Delivery - A Thermodynamic and Kinetic Study” (ACS Med Chem Lett, 2011).

In experiment [1] the target is T1, Riboflavin-binding protein (Gallus gallus) (UniProt P02752).
T1 sequence (whole entry): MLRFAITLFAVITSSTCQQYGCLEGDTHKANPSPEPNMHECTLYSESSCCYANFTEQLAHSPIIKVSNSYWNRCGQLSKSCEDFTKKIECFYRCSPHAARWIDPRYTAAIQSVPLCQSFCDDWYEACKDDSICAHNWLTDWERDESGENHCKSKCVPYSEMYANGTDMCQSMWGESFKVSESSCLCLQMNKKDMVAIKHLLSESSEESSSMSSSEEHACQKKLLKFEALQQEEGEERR
The experiment can be described thus: Competitive inhibition of chicken riboflavin binding protein binding to immobilized ligand by surface plasmon resonance assay. In general terms: Surface plasmon resonance follows binding to a sensor surface in real time, without labels.

For experiment [2], the target named is T1, Riboflavin-binding protein (Gallus gallus). The experiment can be described thus: Competitive inhibition of chicken riboflavin binding protein binding to immobilized ligand at 500 uM by surface plasmon resonance assay.
In experiment [3] the target is T2, Riboflavin-binding protein (Gallus gallus, UniProt P02752).
T2 sequence (P02752 whole entry): T1 sequence (whole entry)
The experiment is described as follows: Binding affinity to chicken riboflavin binding protein by surface plasmon resonance assay.

In experiment [4] the target is T2, Riboflavin-binding protein. The experiment can be described thus: Binding affinity to chicken riboflavin binding protein assessed as dissociation constant at pH 7.4 in 0.1 M phosphate buffer by isothermal titration calorimetric assay. In general terms: In ITC the heat of successive injections is recorded.
For experiment [5], the target named is T2, Riboflavin-binding protein. The experiment is described as follows: Binding affinity to chicken riboflavin binding protein assessed as dissociation constant at pH 7.4 in phosphate buffer by isothermal titration calorimetric assay.
Experiment [6] deals with T2, Riboflavin-binding protein. The experiment can be described thus: Binding affinity to chicken riboflavin binding protein assessed as dissociation constant at pH 9 in 0.1 M Tris by isothermal titration calorimetric assay.
Experiment [7] has as its target T2, Riboflavin-binding protein. The experiment is described as follows: Competitive inhibition of chicken riboflavin binding protein by surface plasmon resonance assay.
For experiment [8], the target named is T2, Riboflavin-binding protein. The experiment can be described thus: Binding affinity to chicken riboflavin binding protein assessed as dissociation constant at pH 4 in 0.1 M NaAc by isothermal titration calorimetric assay.

The structures appear in SMILES notation.

A word on the inhibition: it is the relative decrease from the control value, in per cent. One may read the Kd as the constant that tells how readily two partners part at equilibrium. With `Cc1cc2nc3c(=O)n(CC(=O)NCCCN)c(=O)nc-3n(C[C@H](O)[C@H](O)[C@H](O)CO)c2cc1C`, the inhibition entry was “Dose-dependent effect” in experiment [1] and 90% in experiment [2]. In addition, in experiment [3], the Kd came out at 35500 nM.

The term Ki denotes the dissociation constant of the complex between target and ligand, obtained from inhibition or displacement. A high value points to lower affinity. For the compound `Cc1cc2nc3c(=O)[nH]c(=O)nc-3n(C[C@H](O)[C@H](O)[C@H](O)CO)c2cc1C` [RIBOFLAVIN], the dissociation constant Kd was 6.6 nM in experiment [4], 5 nM in experiment [5], 34 nM in experiment [6] and 46 nM in experiment [8]. The compound further had a Ki in experiment [7] of 350 nM.

As for `Cc1cc2nc3c(=O)[nH]c(=O)nc-3n(C)c2cc1C` [LUMIFLAVIN], the dissociation constant (Kd) in experiment [5] was 61 nM.
